Data reported in ChEMBL document CHEMBL1201862, “PubChem BioAssay data set” (2004).
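Tested at 5 concentrations; 48 h exposure; 96-well plates; endpoints linearly interpolated, else capped at highest concentration. GI50 is the concentration that inhibits growth by half.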 Active and inactive are the calls of the source. Cut-off read from the data, not from the text of the source: active = GI50 up to about 1.1 µM and inactive = higher.

What was measured:
Assay in all cases: DTP human tumour cell line panel, 48 h
ACHN = tested on: ACHN
HCC 2998 = tested on: HCC 2998
HOP-62 = tested on: HOP-62
IGROV-1 = tested on: IGROV-1
MOLT-4 = tested on: MOLT-4
Malme-3M = tested on: Malme-3M
NCI-H23 = tested on: NCI-H23
NCI-H460 = tested on: NCI-H460
NCI-H522 = tested on: NCI-H522
RXF 393 = tested on: RXF 393
SF-539 = tested on: SF-539
SK-MEL-28 = tested on: SK-MEL-28
SK-MEL-2 = tested on: SK-MEL-2
SN12C = tested on: SN12C
SR = tested on: SR
UO-31 = tested on: UO-31
HOP-92 = tested on: HOP-92

| SMILES | GI50 (ACHN) | GI50 (HCC 2998) | GI50 (HOP-62) | GI50 (IGROV-1) | GI50 (MOLT-4) | GI50 (Malme-3M) | GI50 (NCI-H23) | GI50 (NCI-H460) | GI50 (NCI-H522) | GI50 (RXF 393) | GI50 (SF-539) | GI50 (SK-MEL-28) | GI50 (SK-MEL-2) | GI50 (SN12C) | GI50 (SR) | GI50 (UO-31) | GI50 (HOP-92) |
| --- | --- | --- | --- | --- | --- | --- | --- | --- | --- | --- | --- | --- | --- | --- | --- | --- | --- |
| COC(c1cccc(C(O)(C(F)(F)F)C(F)(F)F)c1)(C(F)(F)F)C(F)(F)F | 15.8 µM (inactive) | 8.79 µM (inactive) | 19.1 µM (inactive) | 20.2 µM (inactive) | 22 µM (inactive) | 19.4 µM (inactive) | 19.7 µM (inactive) | 18.3 µM (inactive) | 13.5 µM (inactive) | 20.4 µM (inactive) | 19.2 µM (inactive) | > 10 µM (inactive) | 18.2 µM (inactive) | 18.3 µM (inactive) | 32.1 µM (inactive) | 19.9 µM (inactive) | – |
| O=C1C(Cl)N(c2cccc([N+](=O)[O-])c2)C1c1c[nH]c2ccccc12 (stereo unspecified) | – | – | 17.1 µM (inactive) | 16.4 µM (inactive) | 8.38 µM (inactive) | 2.36 µM (inactive) | 22.2 µM (inactive) | 12.1 µM (inactive) | 16 µM (inactive) | 12.9 µM (inactive) | 15.3 µM (inactive) | 23.7 µM (inactive) | 14.4 µM (inactive) | 28.6 µM (inactive) | 10.7 µM (inactive) | 17.5 µM (inactive) | 19 µM (inactive) |
| C=C(C(=C)P(=S)(c1ccccc1)c1ccccc1)P(=S)(c1ccccc1)c1ccccc1 | > 100 µM (inactive) | > 100 µM (inactive) | > 100 µM (inactive) | > 100 µM (inactive) | > 100 µM (inactive) | 74.8 µM (inactive) | > 100 µM (inactive) | > 100 µM (inactive) | > 100 µM (inactive) | > 100 µM (inactive) | > 100 µM (inactive) | > 100 µM (inactive) | > 100 µM (inactive) | > 100 µM (inactive) | – | – | 2.52 µM (inactive) |
| CCCCc1c2c(nc3c1CCCC3=O)CCCC2 | > 100 µM (inactive) | > 100 µM (inactive) | > 100 µM (inactive) | > 100 µM (inactive) | > 100 µM (inactive) | 50.2 µM (inactive) | > 100 µM (inactive) | > 100 µM (inactive) | > 100 µM (inactive) | – | > 100 µM (inactive) | > 100 µM (inactive) | – | > 100 µM (inactive) | 41.4 µM (inactive) | > 100 µM (inactive) | – |
| CC(=O)c1ccc(NC(=O)C(=O)C(C#N)CC(C)(C)C=O)cc1 (stereo unspecified) | > 100 µM (inactive) | > 100 µM (inactive) | > 100 µM (inactive) | > 100 µM (inactive) | > 100 µM (inactive) | > 100 µM (inactive) | > 100 µM (inactive) | > 100 µM (inactive) | > 100 µM (inactive) | – | > 100 µM (inactive) | > 100 µM (inactive) | > 100 µM (inactive) | > 100 µM (inactive) | > 100 µM (inactive) | > 100 µM (inactive) | 68.4 µM (inactive) |
| COc1cccc(NC(=O)CC(=O)n2nc(C)c(/N=N/c3ccccc3)c2C)c1 | > 100 µM (inactive) | > 100 µM (inactive) | > 100 µM (inactive) | > 100 µM (inactive) | 69.2 µM (inactive) | > 100 µM (inactive) | > 100 µM (inactive) | – | > 100 µM (inactive) | – | > 100 µM (inactive) | > 100 µM (inactive) | – | > 100 µM (inactive) | 78.7 µM (inactive) | 65.6 µM (inactive) | > 100 µM (inactive) |
| COc1cc2c(cc1OC)C(Cl)C(c1ccc(Cl)cc1)=C2Cl (stereo unspecified) | 15.2 µM (inactive) | – | – | 19.3 µM (inactive) | 6.73 µM (inactive) | 22 µM (inactive) | 14.2 µM (inactive) | 13.5 µM (inactive) | 12 µM (inactive) | – | 17.1 µM (inactive) | 19.1 µM (inactive) | 16 µM (inactive) | 17.5 µM (inactive) | – | 16.8 µM (inactive) | 12.6 µM (inactive) |
| CC(=O)Nc1ccc(C(=O)NN2C(=O)C(Cl)C2c2cc(Br)cc(Br)c2O)cc1 (stereo unspecified) | > 100 µM (inactive) | > 100 µM (inactive) | > 100 µM (inactive) | 52.6 µM (inactive) | > 100 µM (inactive) | > 100 µM (inactive) | > 100 µM (inactive) | > 100 µM (inactive) | > 100 µM (inactive) | – | > 100 µM (inactive) | > 10 µM (inactive) | > 100 µM (inactive) | > 100 µM (inactive) | > 100 µM (inactive) | > 100 µM (inactive) | > 100 µM (inactive) |
| O=C1NP23(OCCO2)Oc2ccccc2C3(C(F)(F)F)O1 (stereo unspecified) | > 100 µM (inactive) | – | – | – | > 100 µM (inactive) | > 100 µM (inactive) | > 100 µM (inactive) | 78.3 µM (inactive) | > 100 µM (inactive) | – | > 100 µM (inactive) | > 100 µM (inactive) | > 100 µM (inactive) | > 100 µM (inactive) | – | – | – |
| CN(C)c1ccc(/C=C/C(=O)O)cc1 | > 100 µM (inactive) | > 100 µM (inactive) | > 100 µM (inactive) | > 100 µM (inactive) | > 100 µM (inactive) | > 100 µM (inactive) | – | > 100 µM (inactive) | > 100 µM (inactive) | – | > 100 µM (inactive) | – | > 100 µM (inactive) | > 100 µM (inactive) | – | > 100 µM (inactive) | – |
| COC(=O)C12CC(c3ccccc31)C1C(=O)OC(=O)C12 (stereo unspecified) | > 100 µM (inactive) | > 100 µM (inactive) | > 100 µM (inactive) | > 100 µM (inactive) | > 100 µM (inactive) | > 100 µM (inactive) | > 100 µM (inactive) | > 100 µM (inactive) | > 100 µM (inactive) | > 100 µM (inactive) | > 100 µM (inactive) | > 100 µM (inactive) | > 100 µM (inactive) | > 100 µM (inactive) | – | > 100 µM (inactive) | > 100 µM (inactive) |
| COC(=O)c1ccc(/N=N/N(C)CO)cc1 | 80.2 µM (inactive) | > 100 µM (inactive) | 81.8 µM (inactive) | > 100 µM (inactive) | > 100 µM (inactive) | > 100 µM (inactive) | > 100 µM (inactive) | > 100 µM (inactive) | > 100 µM (inactive) | 59.6 µM (inactive) | 57.4 µM (inactive) | > 100 µM (inactive) | > 100 µM (inactive) | > 100 µM (inactive) | 44.3 µM (inactive) | > 100 µM (inactive) | – |
| Cn1c(=O)nc2n(-c3ccc(Br)cc3)c3ccccc3nc-2c1=O | 0.543 µM (active) | 2.21 µM (inactive) | 13.6 µM (inactive) | 11.7 µM (inactive) | 6.25 µM (inactive) | 3.61 µM (inactive) | 0.783 µM (active) | 1.82 µM (inactive) | 4.39 µM (inactive) | 12.3 µM (inactive) | 5.85 µM (inactive) | – | 9.33 µM (inactive) | 4.97 µM (inactive) | – | 10.4 µM (inactive) | – |
| O=C1c2ccccc2CC1C1(O)C(=O)Nc2c(Cl)cc(Cl)cc21 (stereo unspecified) | 64 µM (inactive) | > 100 µM (inactive) | 99.5 µM (inactive) | – | 30.5 µM (inactive) | 79.6 µM (inactive) | 24.9 µM (inactive) | 99.8 µM (inactive) | 17.9 µM (inactive) | 23.6 µM (inactive) | – | > 100 µM (inactive) | 97.5 µM (inactive) | > 100 µM (inactive) | – | 49.8 µM (inactive) | 53.3 µM (inactive) |
